Data as given in patent publication US12559574B2 (National Health Research Institutes, priority 2019, dated 2026).
Read-outs that look alike come from different tables or passages of the source.

How the values were obtained:
LLC cells = assay: transwell migration and Matrigel invasion, LLC; type: cell-based, murine; conditions: 24 h; for succinate-induced LLC migration: succinate with test agent
Experimental: (§1) Transwell migration and invasion assays are performed. Relative ability of migration or invasion is calculated from 3 fields under a light microscope. […] Migration assays and Matrigel invasion assay are then performed with PDGF-BB as a chemoattractant and migrated cell counts expressed as fold of basal controls.
(§2) LLC and A549 lung cancer cells are treated with different concentrations of HIF-1α specific inhibitors, and cell migration is assessed in a transwell assay. […] Prolyl hydroxylase (PHD) controls HIF-1α protein stability by hydroxylation of two conserved proline residues in HIF-1α thereby accelerating its degradation. […] Cell lysates are immunoblotted with antibodies specific for E-cadherin, Vimentin, or […]-actin.

A549 = assay: transwell migration and Matrigel invasion, A549; type: cell-based, human; conditions: 24 h; for succinate-induced A549 migration: succinate with test agent
Experimental: as §1
(§3) The cells are lysed, and the cell lysates are immunoblotted with antibodies specific for E-cadherin, N-cadherin, vimentin, or β-actin.
as §2

A549 cells = assay: EMT marker immunoblot in A549 cells; type: cell-based, human
Experimental: as §3, §2

HIF-1α [1] = assay: kinase phosphorylation and HIF-1α expression in A549 cells; type: cell-based, human; conditions: for HIF-1α expression: A549/shNC cells, succinate 1 mM or DMS 20 mM, 12 h, qPCR
Experimental: MAPK-, phosphatidylinositol 3-kinase (PI3K)-AKT-mTOR-, and AMP-activated protein kinase (AMPK)-mediated hypoxia-inducible factor-1α (HIF-1α) upregulation plays critical roles in macrophage activation and cancer progression. Therefore, it is investigated that whether these signaling molecules mediate the succinate actions. […] Using selective kinase inhibitors, LLC cells are treated with different concentrations of LY294002 or SB202190 for 12 h, and Hif-1α mRNA is measured. […] To understand the role of SUCNR1 in driving HIF-1α expression, the expression level of HIF-1α in A549/shSUCNR1 is determined.

LLC [2] = conditions: succinate 20 and 100 mg/kg i.p. twice a week for 3 weeks vs saline
Experimental: (§4) On day 21, primary subcutaneous tumors are harvested, and percentage of TAMs is analyzed.

[3] = test system: mouse peritoneal macrophages
Experimental: as §4

peritoneal macrophages [4] = assay: peritoneal macrophage transwell migration (A549-CM, succinate, anti-SUCNR1); type: cell-based, mouse; conditions: succinate vs control
Experimental: The peritoneal macrophages are seeded on the upper chamber of transwell plates and cultured with control medium (DMEM) or CM from A549 (A549-CM) for 24 h. […] As shown in FIGS. 18A and 18B, A549-CM and A549-SCM increase macrophage migration compared with the control medium, which is abrogated by anti-SUCNR1 antibody but not control IgG.

HT-29 = assay: transwell migration and Matrigel invasion, HT-29; type: cell-based, human; conditions: HT-29, different concentrations of succinate, 24 h
Experimental: (§5) Transwell migration and invasion assays are performed.
(§6) Succinate-induced migration of LLC, A549, PC3 and HT-29 cells is blocked by anti-SUCNR1 antibody but not control IgG antibody (FIG. 23A).

MCF-7 = conditions: MCF-7, different concentrations of succinate, 24 h
Experimental: as §1

PC3 = assay: transwell migration and Matrigel invasion, PC3; type: cell-based, human; conditions: PC3, different concentrations of succinate, 24 h
Experimental: as §5, §6

LLC [5] = test system: LLC
Text: The subcutaneous primary tumors are surgically removed after 3 weeks and mice are kept for another 2 weeks at which time animals are sacrificed.

HIF-1α [6] = assay: kinase phosphorylation and HIF-1α expression in LLC cells; type: cell-based, murine; conditions: succinate 1 mM
SUCNR1 [7] = conditions: A549, succinate 1 mM
SUCNR1 [8] = conditions: succinate 1 mM, 2 h
PMϕs = assay: VCAM1+CD11c+CD11b low-TAM population in succinate-stimulated PMϕs, flow cytometry; type: cell-based, mouse; conditions: pre-treated 1 h, succinate 1 mM 3 days
Experimental: (§7) VCAM1^+CD11c^+CD11b^low-TAM population is quantified by flow cytometry and normalized to the cell number of control medium treatment. […] The LLC cells are subcutaneously injected into C57BL/6J mice. The mice with an average 50 mm^3 subcutaneous tumors (8 day after LLC tumor inoculation) receive intraperitoneal injections of 6G10F6 monoclonal antibody (1 and 5 mg/kg) or IgG control antibody (5 mg/kg), twice a week for 5 weeks. The subcutaneous tumors are surgically removed 3 weeks after LLC injection for the assessment of TAM polarization; the lung, liver, spleen, and adrenal gland are excised from mice 2 weeks after removal of the primary tumor for the determination of tumor metastasis.

peritoneal macrophages [9] = assay: succinate-induced peritoneal macrophage migration with anti-succinate antibodies, transwell; type: cell-based, mouse; conditions: succinate 1 mM, 24 h
Experimental: as §7

LLC [10] = assay: syngeneic murine LLC tumor model treated with 6G10F6 monoclonal antibody
Experimental: as §7

[11] = succinate 20 and 100 mg/kg i.p. twice a week vs saline

Molecule: COc1cc2c(cc1O)CC[C@@H]1[C@@H]2CC[C@]2(C)[C@@H](O)CC[C@@H]12 [2-MeOE2]
- succinate-induced LLC migration (LLC cells): inhibit succinate-mediated migration of LLC and A549 in a dose-dependent manner
- succinate-induced A549 migration (A549): inhibit succinate-mediated migration of LLC and A549 in a dose-dependent manner

Molecule: Cc1cc(-c2nc(-c3ccc(OC(F)(F)F)cc3)no2)nn1Cc1ccnc(N2CCN(C3CC3)CC2)c1 [Bay 87-2243]
- succinate-induced LLC migration (LLC cells): inhibit succinate-mediated migration of LLC and A549 in a dose-dependent manner
- succinate-induced A549 migration (A549): inhibit succinate-mediated migration of LLC and A549 in a dose-dependent manner
- succinate-mediated vimentin augmentation and E-cadherin reduction (A549 cells; pretreated 1 h, succinate 1 mM 24 h): suppresses

Molecule: COC(=O)CNC(=O)C(=O)OC [DMOG, dimethyloxalyl glycine]
- succinate-induced A549 migration (A549): increases

Molecule: COC(=O)CCC(=O)OC [DMS, dimethyl-ester succinate, reference compound]
- HIF-1α expression (HIF-1α [1]): results in elevation of HIF-1α

Molecule: CN(C)C(=N)N=C(N)N [metformin]
- succinate-induced A549 migration (A549): abolish

Molecule: O=C(O)CCC(=O)O [succinate]
- VCAM1+CD11c+CD11b low-TAMs in primary subcutaneous tumors (LLC [2]): significantly higher number
- ARG1 protein expression ([3]; different concentrations of succinate, 24 h): increases the expression of ARG1 protein in mouse peritoneal macrophages in a concentration-dependent manner
- TAM marker gene expression (Arg1, Fizz1, Mgl1, Mgl2 mRNA) ([3]; qPCR, 24 h): raises the expression of TAM marker gene
- TAM surface markers CD11c and VCAM1 ([3]; succinate 1 mM, 3 days, flow cytometry): up-regulates TAM surface markers
- macrophage migration (peritoneal macrophages [4]): dramatically increase macrophage migration
- cell migration and invasion (LLC cells; LLC, different concentrations of succinate): promotes cell migration and invasion
- cell migration and invasion (A549; A549, different concentrations of succinate): promotes cell migration and invasion
- cell migration and invasion (HT-29): promotes cell migration and invasion
- cell migration and invasion (MCF-7): promotes cell migration and invasion
- cell migration and invasion (PC3): promotes cell migration and invasion
- E-cadherin, N-cadherin and vimentin levels (A549 cells; succinate 0.5, 1, 2.5 mM 24 h, 1 mM time course): suppresses E-cadherin and increased N-cadherin and vimentin in a concentration and time-dependent manner
- metastatic cancer nodules in liver and spleen (LLC [5]; [11]): similarly higher
- metastatic cancer nodules in lungs (LLC [5]; [11]): higher in mice receiving succinate (in a dose-dependent manner) than in mice receiving saline
- incidence of adrenal metastasis (LLC [5]; succinate-treated vs saline, p=0.088): higher in succinate-treated animal, but the difference does not reach statistical significance
- HIF-1α protein and mRNA expression (HIF-1α [6]): increases HIF-1α protein
- phosphorylation of p38 MAPK, AKT, and AMPK (HIF-1α [6]): induces phosphorylation of p38 MAPK, AKT, and AMPK in a time-dependent manner
- HIF-1α protein and mRNA expression (HIF-1α [1]; A549, succinate 1 mM): increases HIF-1α protein
- phosphorylation of p38 MAPK, AKT, and AMPK (HIF-1α [1]; A549, succinate 1 mM): induces phosphorylation of p38 MAPK, AKT, and AMPK in a time-dependent manner
- HIF-1α expression (HIF-1α [1]): Up-regulation of HIF-1α is observed
- phosphorylated ERK1/2 (SUCNR1 [7]): rapid rise of phosphorylated ERK1/2 at 2 min
- intracellular Ca2+ (SUCNR1 [7]; 2 h): increased
- PGE2 released into the medium (SUCNR1 [8]; LLC stably transfected with control shRNA): increased
- intracellular Ca2+ (SUCNR1 [8]; LLC): increased

Molecule: O=C(O)CCC(=O)C(=O)O [α-KG, α-ketoglutarate]
- succinate-induced A549 migration (A549): reduces

B1: 6G10F6: mouse monoclonal anti-succinate antibody, heavy chain SEQ ID NO: 2, light chain SEQ ID NO: 4 (antibody, V domains shown)
VH: MRVLILLWLFTAFPGILSDVQLQESGPGLVKPSQSLSLTCTVTGYSITSDYAWNWFRQFPGNKLEWMGYTSYSGSTSYNPSLKSRISITRNTSKNQIFLQLNSVTPEDTATYYCAREVTTFGYFDYWGQGTTLTVSS
VL: MAWTSLILSLLALCSGASSQAVVTQESALTTSPGGTVILTCRSSTGAVTTSNYANWVQEKPDHLFTGLIGGTSNRAPGVPVRFSGSLIGDKAALTITGAQTEDDAMYFCALWYSTHYVLGGGTKVTVL
modifications: Heavy chain of 6G10F6 Antibody; Light chain of 6G10F6 antibody
- succinate up-regulated TAM surface markers CD11c and VCAM1 (PMϕs): suppresses
- succinate-induced macrophage migration (peritoneal macrophages [9]): suppresses
- survival of LLC tumor-bearing mice (LLC [10]; 1 and 5 mg/kg i.p.): significantly prolongs the survival
- lung tumor multiplicities (LLC [10]; 1 and 5 mg/kg i.p. twice a week for 5 weeks, vs saline): significantly suppresses
- TAM population in subcutaneous tumors (LLC [10]; 1 and 5 mg/kg i.p. twice a week, vs saline): significantly suppresses
